“Also recorded” adds a separate entry of the source.
Legend:
[1] = format: physicochemical
Description: Next, methyl isobutyl ketone was added and then water. In some embodiments, a lower alkyl isobutyl ketone is used in place of methyl isobutyl ketone. In some embodiments, the lower alkyl is a C1-3 alkyl. In some embodiments, the lower alkyl is methyl or ethyl. The temperature was lowered to <10° C. The remaining solid was isolated and washed with methyl isobutyl ketone to produce the final DAM (denatonium acetate monohydrate).

[2] = Form stability of further XRPD patterns on storage or standing (reanalysis by XRPD); format: physicochemical; conditions: for XRPD form after standing on disc for 4 hours / XRPD form after standing overnight on disc: ambient lab conditions; for XRPD form after standing on disc for 4 hours: 4 hours on XRPD disc; for XRPD form after standing overnight on disc: room temperature
Excerpt: (§1) It was then removed from the instrument and a portion immediately analyzed by XRPD.
The frozen sample was lyophilized on the freeze dryer until all the solvent was removed. […] This was designated as Pattern 2.
A summary of the characterization data for the samples of Pattern 5 can be found in Table 9.

[3] = Storage under stress conditions (temperature / relative humidity); format: physicochemical; conditions: for UPLC purity after storage: input purity 99.5%
Excerpt: It also lost mass when taken to relative humidity levels of less than 10%.
It also loses mass when taken to relative humidity levels of less than 10%.
as §1

[4] = Gravimetric Vapor Sorption (GVS) experiments; format: physicochemical
Description: Several Gravimetric Vapor Sorption (GVS) experiments were carried out to investigate the behavior of DAM over a range of different relative humidity levels. […] This experiment used a similar method to GVS 1 without the steps involving 90% RH where the large mass changes were observed and equilibrium was not reached. […] Most of the mass change (1.3-1.4% increase) occurred between 0-10% RH.

CC(=O)[O-].CC[N+](CC)(CC(=O)Nc1c(C)cccc1C)Cc1ccccc1 [DAA, Denatonium Acetate, anhydrous]
degradation products [1]: either (A) lidocaine and benzyl acetate or it degraded to (B) 2-(diethylamino)-3-phenyl-N-(2,6-dimethylphenylpropionamide

CC(=O)[O-].CC[N+](CC)(CC(=O)Nc1c(C)cccc1C)Cc1ccccc1.O [DAM Pattern 2]
XRPD form after storage in closed vial ([2]; 7 weeks): Conversion to Pattern 1 by XRPD
XRPD form after storage in closed vial ([2]; 7 weeks, listed as Pattern 2): converted to Pattern 1; also recorded: consistent with Pattern 1

CC(=O)[O-].CC[N+](CC)(CC(=O)Nc1c(C)cccc1C)Cc1ccccc1.O [DAM Pattern 4]
XRPD form after storage in closed vial ([2]; 6 weeks): Conversion to Pattern 1 by XRPD
XRPD form after storage in closed vial ([2]; 6 weeks, listed as Pattern 4): conversion to Pattern 1

CC(=O)[O-].CC[N+](CC)(CC(=O)Nc1c(C)cccc1C)Cc1ccccc1.O [DAM Pattern 5]
XRPD form after standing on disc for 4 hours [2]: Conversion to Pattern 1 by XRPD
XRPD form after standing on disc for 4 hours ([2]; listed as Pattern 5): readily convert to Pattern 1; also recorded: conversion to Pattern 1; also recorded: converted to Pattern 1; also recorded: reverted to Pattern 1
stability of the pattern ([2]; ambient laboratory conditions): metastable
XRPD form after storage in closed vial ([2]; 6 weeks, listed as Pattern 5): converted to Pattern 1
XRPD form after standing overnight on disc [2]: Conversion to Pattern 1 by XRPD
XRPD form after standing overnight on disc ([2]; listed as Pattern 5): convert to Pattern 1; also recorded: reverted to Pattern 1
XRPD form under ambient laboratory conditions ([2]; within a few hours): converts to Pattern 1

CC(=O)[O-].CC[N+](CC)(CC(=O)Nc1c(C)cccc1C)Cc1ccccc1 [DAM, denatonium acetate monohydrate]
XRPD form after storage at 0% RH ([3]; 0% RH, open vial in GVS instrument, 2 days, acetate monohydrate): converted to Pattern 5; also recorded: consistent with Pattern 5; also recorded: change in form to Pattern 5
observation after storage ([3]; 25° C., 96% RH, 5 days, acetate monohydrate): deliquesce; also recorded: Sample had deliquesced
XRPD after storage ([3]; 25° C., 96% RH, 7 days): Amorphous
observation after storage ([3]; 25° C., 96% RH, 7 days): deliquesced
UPLC purity after storage ([3]; 25° C., 96% RH, 7 days): UPLC purity 98.9%
XRPD after storage ([3]; 40° C., 75% RH, 7 days): Shows no change in form by XRPD after 7 days
UPLC purity after storage ([3]; 40° C., 75% RH, 7 days): UPLC purity 99.4%
observation after storage ([3]; 40° C., 75% RH, after 5 and 7 days): Remained a solid after 5 and 7 days.
mass change ([4]; GVS 2, between 0-10% RH): 1.4%
mass change ([4]; GVS 3, between 0-10% RH): 1.3-1.4%
sample appearance after GVS ([4]; after GVS 1 (40-90-0-90-0-40)): sorption cycle. Sample had formed a solid mass with powdery
sample appearance after GVS ([4]; after GVS 2 (40-80-0-80-0-40), acetate monohydrate): remained as a free-flowing powder; also recorded: Sample remained free flowing solid
sample appearance after GVS ([4]; after GVS 3 (40-0-80-0-80-0-40), acetate monohydrate): remained as a free-flowing powder; also recorded: Sample remained free flowing solid
XRPD post GVS ([4]; post GVS 1, 2, 3): Shows no change in form by XRPD post GVS 1, 2, 3
XRPD post GVS ([4]; post GVS 2): consistent with Pattern 1
XRPD post GVS ([4]; post GVS 3): consistent with Pattern 1
hygroscopicity ([4]; relative humidity levels above 80%, acetate monohydrate): ED21356-001-001-00 is very hygroscopic especially at levels
mass behaviour at low humidity ([4]; relative humidity levels of less than 10%, acetate monohydrate): lost mass; also recorded: loses mass
